The record followed here is patent US11993576B2, “N-benzyl-N-arylsulfonamide derivative and preparation and use thereof” (Hangzhou Yirui Pharmaceutical Technology Co., Ltd, priority 2019, dated 2024).

The assay concerns the target human Kv1.3 (Homo sapiens, UniProt P22001). Put plainly: IonWorks automated patch clamp assay of inhibitory activity against Kv1.3. Type of assay: cell-based. Conditions: automated patch clamp method; CHO-K1 cells stably expressing human Kv1.3. On the procedure:
I. IonWorks Automated Patch Clamp Assay of Inhibitory Activity Against Kv1.3
The principle and method for Kv1.3 IonWorks assay can be found in Schroeder et al. [Schroeder et al. J Biomol Screen 2003, 8(1):50-64]
Inhibitory activity of the compounds against Kv1.3 was assessed using a CHO-K1 recombinant cell line stably expressing human Kv1.3 (Charles River, Calif.). The cells were cultured in an F-12K culture medium containing 5% calf serum (Invitrogen, Carlsbad. Calif.) in an incubator at 37° C. and under air humidity with 6% CO2. Prior to be fed in the IonWorks system, the adherent cells were treated with Versene at 37° C. for 6-7 min. After gently beating the culture flask, the cells were re-suspended in a PBS phosphate buffer, and then were centrifuged at 50×g for 4 min. After a short grinding, the cells were eventually re-suspended in an external recording solution at a density of approximately 1×10^6/mL.
The compounds were dissolved in DMSO to formulate a final assay concentration of 300× on the master plate. The final gradient assay concentrations were […], 0.096, 0.048, 0.24, 1.2, 6 and 30 μM. All 300× stock solutions of each compound in DMSO were transferred to a 384-well plate with 2 μl per well. The plates were sealed and stored at −80° C. until the day of assay.
On the day of assay, the plates were each thawed at room temperature. After centrifugation, 198 μl of the external recording solution (with the components of: 130 mM Na-Gluconate, 20 mM NaCl, 4 mM KCl, 1 mM MgCl2, 1.8 mM CaCl2, 5 mM Glucose and 10 mM HEPES, pH7.3) was added and mixed thoroughly. This step provided a 1:100 dilution for the compounds. After addition of cells to IonWorks, a further 1:3 dilution was carried out, resulting in a total dilution of 1:300. At least 8 wells were reserved as blank control on each of the plates, i.e., containing only 0.3% DMSO. In addition, at least 8 wells were reserved as positive control to detect the specificity to cell signals. Fluoxetine, a compound as the positive control, was assayed at its maximum blocking concentration (100 μm) and secondary maximum blocking concentration (10 μm). In addition, an internal recording solution used in the assay (with the components of: 100 mM K-gluconate, 40 mM KCl, 1 mM MgCl2, 1 mM EGTA and 10 mM HEPES, pH7.3) contained Amphotericin B at a final concentration of 200 μg/mL to gain current channels inside the cells. The osmotic pressure of the solution was adjusted with sucrose.
Experimental procedures were carried out following the protocols as set by IonWorks Quattro system (Molecular Devices, San Jose, CA). The current of human Kv1.3 was elicited to 0 millivolt (mV) for four times by a pulse lasting 1 second. A potential of −80 mV was maintained between pulses, for 5 seconds. First, a early voltage application program was started in the IonWorks Quattro system, and then the compounds were added and incubated for 600 seconds. Next, a late voltage application program was started until completion of all assays.
The maximum peak outward currents both before and after addition of the compounds as well as the average tail current elicited when the fourth pulse rose to 0 mV were measured. The inhibitory activity of the compounds against Kv1.3 can be calculated by dividing the measured current amplitude after addition of the compounds by the measured current amplitude before addition of the compounds.
All data was calibrated by a data filtration program of the IonWorks Quattro system. The filtration standard was that: seal quality >30 MΩ, decrease of seal resistance <50% and current amplitude >200 pA.

human Kv1.3, sequence (P22001 whole entry): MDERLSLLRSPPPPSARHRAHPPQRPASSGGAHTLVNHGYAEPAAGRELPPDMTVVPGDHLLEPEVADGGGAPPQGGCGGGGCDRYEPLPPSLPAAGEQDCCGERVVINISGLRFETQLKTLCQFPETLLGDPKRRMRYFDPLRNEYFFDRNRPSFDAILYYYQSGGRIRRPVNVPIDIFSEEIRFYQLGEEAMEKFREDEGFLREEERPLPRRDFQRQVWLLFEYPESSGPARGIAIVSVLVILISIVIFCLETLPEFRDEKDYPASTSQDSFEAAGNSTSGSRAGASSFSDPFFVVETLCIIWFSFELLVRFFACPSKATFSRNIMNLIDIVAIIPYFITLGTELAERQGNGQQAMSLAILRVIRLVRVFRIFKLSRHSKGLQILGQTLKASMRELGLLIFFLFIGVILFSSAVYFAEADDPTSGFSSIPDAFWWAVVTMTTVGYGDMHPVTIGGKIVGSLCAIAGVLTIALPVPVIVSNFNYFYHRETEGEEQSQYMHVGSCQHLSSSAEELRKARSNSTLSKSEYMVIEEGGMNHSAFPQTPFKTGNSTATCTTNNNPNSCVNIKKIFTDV

The term IC50 denotes the concentration needed to halve the response being measured. Low readings indicate inhibition by little substance, high ones a need for much substance. As to `CCCN(c1ccc(N2CCN(C(=O)OCC)CC2)c(C#N)c1)S(=O)(=O)c1ccc(F)cc1` [Compound 8, Ethyl 4-(2-cyano-4-((4-fluoro-N-propylphenyl)sulfonamido)phenyl)piperazin-1-formate], the IC50 worked out at 9300 nM.

On to `CCCS(=O)(=O)N(Cc1ccnn1C)c1ccc(N2CCN(C(=O)OCC)CC2)c(C#N)c1` [Compound 36, Ethyl 4-(2-cyano-4-(N-((1-methyl-1H-pyrazol-5-yl)methyl)propanesulfon-amido)phenyl)piperazin-1-formate], for which the IC50 was 130 nM.

`CCCS(=O)(=O)N(Cc1ccc(F)cc1)c1ccc(SC2CCNCC2)c(C#N)c1` [Compound 51, N-(3-cyano-4-(piperidin-4-ylthio)phenyl)-N-(4-fluorobenzyl) propanesulfonamide] returned an IC50 of 412 nM.

`N#Cc1cc(N(Cc2ccccc2)S(=O)(=O)c2ccccc2)ccc1N1CCC(=O)CC1` [Compound 5, N-benzyl-N-(3-cyano-4-(4-oxopiperidin-1-yl)phenyl) benzenesulfonamide] came in with an IC50 of 186 nM.

Compound `CCCS(=O)(=O)N(Cc1cncn1C)c1ccc(N2CCN(C(=O)OCC)CC2)c(C#N)c1` [Compound 35, Ethyl 4-(2-cyano-4-(N-((1-methyl-1H-imidazol-5-yl)methyl)propanesulfonamido)phenyl)piperazin-1-formate] had an IC50 of 201 nM.

Take `CCCS(=O)(=O)N(Cc1ccc(F)cc1)c1ccc(OC2CCNCC2)c(C#N)c1` [Compound 50, N-(3-cyano-4-(piperidin-4-yloxy)phenyl)-N-(4-fluorobenzyl) propanesulfonamide]: the IC50 was 370 nM.

The compound `CCCS(=O)(=O)N(Cc1ccc(F)cc1)c1ccc(SC2CCN(C(C)=O)CC2)c(C#N)c1` [Compound 54, N-(4-((1-acetylpiperidin-4-yl)thio)-3-cyanophenyl)-N-(4-fluorobenzyl) propanesulfonamide] displayed an IC50 of 389 nM.

Turning to `N#Cc1cc(N(Cc2ccc(F)cc2)S(=O)(=O)c2ccccc2)ccc1N1CCC(O)CC1` [Compound 20, N-(3-cyano-4-(4-hydroxypiperidin-1-yl)phenyl)-N-(4-fluorobenzyl)benzenesulfonamide], the IC50 is 90 nM.

For `CCCS(=O)(=O)N(Cc1ccncn1)c1ccc(N2CCN(C(=O)OCC)CC2)c(C#N)c1` [Compound 31, Ethyl 4-(2-cyano-4-(N-(pyrimidin-4-ylmethyl)propanesulfonamido)phenyl) piperazin-1-formate], the IC50 was 412 nM.

Take `N#Cc1cc(N(Cc2ccc(F)cc2)S(=O)(=O)c2ccccc2)ccc1N1CCOCC1` [Compound 10, N-(3-cyano-4-morpholinylphenyl)-N-(4-fluorobenzyl) benzenesulfonamide]: the IC50 is 98 nM.

On to `CCCS(=O)(=O)N(Cc1ccc(F)cc1OC)c1ccc(N2CCN(C(=O)OCC)CC2)c(C#N)c1` [Compound 30, Ethyl 4-(2-cyano-4-(N-(4-fluoro-2-methoxybenzyl)propanesulfonamido)phenyl)piperazin-1-formate], for which the IC50 was determined as 288 nM.

Consider `N#Cc1cc(N(Cc2ccccc2)S(=O)(=O)c2ccccc2)ccc1N1C(=O)CCCC1=O` [Compound 16, N-benzyl-N-(3-cyano-4-(2,6-dioxopiperidin-1-yl)phenyl)benzenesulfonamide], for which the IC50 was 1260 nM.

Turning to `CCCS(=O)(=O)N(Cc1ccc(OC)cc1)c1ccc(N2CCN(S(=O)(=O)N(C)C)CC2)c(C#N)c1` [Compound 45, 4-(2-cyano-4-(N-(4-methoxybenzyl)propanesulfonamido)phenyl)-N,N-dimethylpiperazin-1-sulfonamide], inhibition was half-maximal at 224 nM (IC50).

Compound `CCCS(=O)(=O)N(Cc1ccncn1)c1ccc(N2CCN(C(=O)N(C)C)CC2)c(C#N)c1` [Compound 42, 4-(2-cyano-4-(N-(pyrimidin-4-ylmethyl)propanesulfonamido)phenyl)-N,N-dimethylpiperazin-1-formamide] came in with an IC50 of 167 nM.

The compound `CN1CCCN(c2ccc(N(Cc3ccccc3)S(=O)(=O)c3ccccc3)cc2C#N)C1=O` [Compound 17, N-benzyl-N-(3-cyano-4-(3-methyl-2-oxotetrahydropyrimidin-1(2H)-yl)phenyl)benzenesulfonamide] displayed an IC50 of 190 nM.

Consider `CCCS(=O)(=O)N(Cc1ccccn1)c1ccc(N2CCN(C(=O)OCC)CC2)c(C#N)c1` [Compound 32, Ethyl 4-(2-cyano-4-(N-(pyridin-2-ylmethyl)propanesulfonamido)phenyl) piperazin-1-formate], for which the IC50 is 165 nM.

Compound `CN(C)S(=O)(=O)N1CCN(c2ccc(N(Cc3ccc(F)cc3F)S(=O)(=O)CC3CC3)cc2C#N)CC1` [Compound 47, 4-(2-cyano-4-((1-cyclopropyl-N-(2,4-difluorobenzyl)methyl)sulfonamido)phenyl)-N,N-dimethylpiperazin-1-sulfonamide] yielded an IC50 of 124 nM.

For the compound `CCCS(=O)(=O)N(Cc1ccc(F)cc1)c1ccc(N2CCN(C(=O)OCC)CC2)c(C(F)(F)F)c1` [Compound 49], half-maximal inhibition (IC50) required 160 nM.

In the case of `CN(C)S(=O)(=O)N1CCN(c2ccc(N(Cc3ccc(F)cc3)S(=O)(=O)c3cccnc3)cc2C#N)CC1` [Compound 48, 4-(2-cyano-4-(-N-(4-fuorophenyl)pyridin-3-sulfonamido)phenyl)-N,N-dimethylpiperazin-1-sulfonamide], half-maximal inhibition (IC50) required 145 nM.

Take `CCOC(=O)NC1CCN(c2ccc(N(Cc3ccccc3)S(=O)(=O)c3ccccc3)cc2C#N)CC1` [Compound 14, ethyl 1-(4-(N-benzylbenzenesulfonamido)-2-cyanophenyl)piperidin-4-yl carbamate]: the half-maximal inhibitory concentration (IC50) amounted to 129 nM.

Compound `CN(C)CCOC1CCN(c2ccc(N(Cc3ccccc3)S(=O)(=O)c3ccccc3)cc2C#N)CC1` [Compound 18, N-benzyl-N-(3-cyano-4-(4-(2-(dimethylamino)ethoxy)piperidin-1-yl)phenyl)benzenesulfonamide] had an IC50 of 101 nM.

With `CCCS(=O)(=O)N(Cc1ccc(F)cc1)c1ccc(SC2CCN(C=O)CC2)c(C#N)c1` [Compound 57, N-(4-((1-formylpiperidin-4-yl)thio)-3-cyanophenyl)-N-(4-fluorobenzyl) propanesulfonamide], half-maximal inhibition (IC50) was put at 254 nM.

Regarding `CCCS(=O)(=O)N(Cc1cscn1)c1ccc(N2CCN(C(=O)OCC)CC2)c(C#N)c1` [Compound 34, Ethyl 4-(2-cyano-4-(N-(thiazol-4-ylmethyl)propanesulfonamido)phenyl) piperazin-1-formate], 645 nM corresponded to half-maximal inhibition (IC50).

Regarding `CC(=O)OC1CCN(c2ccc(N(Cc3ccccc3)S(=O)(=O)c3ccccc3)cc2C#N)CC1` [Compound 7, N-benzyl-N-(3-cyano-4-(4-acetyloxypiperidin-1-yl)phenyl)benzenesulfonamide], the IC50 turned out to be 312 nM.

`CCCS(=O)(=O)N(Cc1ccccc1F)c1ccc(N2CCN(C(=O)OCC)CC2)c(C#N)c1` [Compound 25, Ethyl 4-(2-cyano-4-(N-(2-fluorobenzyl)propanesulfonamido)phenyl) piperazin-1-formate] returned an IC50 of 321 nM.

Regarding `CCCS(=O)(=O)N(Cc1ccncc1)c1ccc(N2CCN(C(=O)N(C)C)CC2)c(C#N)c1` [Compound 41, 4-(2-cyano-4-(N-(pyridin-4-ylmethyl)propanesulfonamido)phenyl)-N,N-dimethylpiperazin-1-formamide], the IC50 turned out to be 131 nM.
